Experimental data as given in patent US8192962B2, “Processes for detecting toxic substances” (Daikin Industries, Ltd., priority 2001, dated 2012).

Test system: Unknown protein yeast genes
Assay: DNA chip mRNA expression in yeast, unknown protein yeast genes (Table 1)
Format: cell-based, Saccharomyces cerevisiae S288C
How it was run: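 Cells were grown at 25° C. in YPD, treated at logarithmic phase for 2 h with a chemical at a concentration inhibiting growth but not causing death, and compared with untreated cultures. Labeled cDNA was hybridized to a DNA chip carrying all yeast genes, and the expression ratio was taken from scanner fluorescence.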

## Na2As [(1)]
Yeast gene YAL053W, incubated two hours with chemical substance
  The level of expressed mRNA in the presence of chemical substance/The level of expressed mRNA in the absence of chemical substance: 0.9
Yeast gene YBL048W
  The level of expressed mRNA in the presence of chemical substance/The level of expressed mRNA in the absence of chemical substance: 2.0
Yeast gene YBL107C
  The level of expressed mRNA in the presence of chemical substance/The level of expressed mRNA in the absence of chemical substance: 1.4
Yeast gene YDL072C, incubated two hours with chemical substance
  The level of expressed mRNA in the presence of chemical substance/The level of expressed mRNA in the absence of chemical substance: 1.3
Yeast gene YDL204W, incubated two hours with chemical substance
  The level of expressed mRNA in the presence of chemical substance/The level of expressed mRNA in the absence of chemical substance: 1.4
Yeast gene YDL222C, incubated two hours with chemical substance
  The level of expressed mRNA in the presence of chemical substance/The level of expressed mRNA in the absence of chemical substance: 0.9
Yeast gene YDR330W, incubated two hours with chemical substance
  The level of expressed mRNA in the presence of chemical substance/The level of expressed mRNA in the absence of chemical substance: 0.8
Yeast gene YDR411C, incubated two hours with chemical substance
  The level of expressed mRNA in the presence of chemical substance/The level of expressed mRNA in the absence of chemical substance: 0.9
Yeast gene YDR511W, incubated two hours with chemical substance
  The level of expressed mRNA in the presence of chemical substance/The level of expressed mRNA in the absence of chemical substance: 1.3
Yeast gene YDR545W, incubated two hours with chemical substance
  The level of expressed mRNA in the presence of chemical substance/The level of expressed mRNA in the absence of chemical substance: 0.6
Yeast gene YEL001C, incubated two hours with chemical substance
  The level of expressed mRNA in the presence of chemical substance/The level of expressed mRNA in the absence of chemical substance: 1.0
Yeast gene YER004W, incubated two hours with chemical substance
  The level of expressed mRNA in the presence of chemical substance/The level of expressed mRNA in the absence of chemical substance: 1.0
Yeast gene YER035W, incubated two hours with chemical substance
  The level of expressed mRNA in the presence of chemical substance/The level of expressed mRNA in the absence of chemical substance: 1.4
Yeast gene YER079W, incubated two hours with chemical substance
  The level of expressed mRNA in the presence of chemical substance/The level of expressed mRNA in the absence of chemical substance: 1.1
Yeast gene YER106W, incubated two hours with chemical substance
  The level of expressed mRNA in the presence of chemical substance/The level of expressed mRNA in the absence of chemical substance: 1.3
Yeast gene YER158C, incubated two hours with chemical substance
  The level of expressed mRNA in the presence of chemical substance/The level of expressed mRNA in the absence of chemical substance: 1.2
Yeast gene YER163C, incubated two hours with chemical substance
  The level of expressed mRNA in the presence of chemical substance/The level of expressed mRNA in the absence of chemical substance: 1.1
Yeast gene YER175C, incubated two hours with chemical substance
  The level of expressed mRNA in the presence of chemical substance/The level of expressed mRNA in the absence of chemical substance: 0.9
Yeast gene YFL006W, incubated two hours with chemical substance
  The level of expressed mRNA in the presence of chemical substance/The level of expressed mRNA in the absence of chemical substance: 0.8
Yeast gene YFL010C, incubated two hours with chemical substance
  The level of expressed mRNA in the presence of chemical substance/The level of expressed mRNA in the absence of chemical substance: 1.0
Yeast gene YFL024C
  The level of expressed mRNA in the presence of chemical substance/The level of expressed mRNA in the absence of chemical substance: 1.0
Yeast gene YFL032W, incubated two hours with chemical substance
  The level of expressed mRNA in the presence of chemical substance/The level of expressed mRNA in the absence of chemical substance: 0.4
Yeast gene YGL037C, incubated two hours with chemical substance
  The level of expressed mRNA in the presence of chemical substance/The level of expressed mRNA in the absence of chemical substance: 1.5
Yeast gene YGL047W, incubated two hours with chemical substance
  The level of expressed mRNA in the presence of chemical substance/The level of expressed mRNA in the absence of chemical substance: 1.0
Yeast gene YGL053W, incubated two hours with chemical substance
  The level of expressed mRNA in the presence of chemical substance/The level of expressed mRNA in the absence of chemical substance: 1.5
Yeast gene YGL121C
  The level of expressed mRNA in the presence of chemical substance/The level of expressed mRNA in the absence of chemical substance: 2.6
Yeast gene YGL199C, incubated two hours with chemical substance
  The level of expressed mRNA in the presence of chemical substance/The level of expressed mRNA in the absence of chemical substance: 1.1
Yeast gene YGR101W, incubated two hours with chemical substance
  The level of expressed mRNA in the presence of chemical substance/The level of expressed mRNA in the absence of chemical substance: 1.0
Yeast gene YGR110W
  The level of expressed mRNA in the presence of chemical substance/The level of expressed mRNA in the absence of chemical substance: 1.6
Yeast gene YGR130C, incubated two hours with chemical substance
  The level of expressed mRNA in the presence of chemical substance/The level of expressed mRNA in the absence of chemical substance: 0.9
Yeast gene YGR154C, incubated two hours with chemical substance
  The level of expressed mRNA in the presence of chemical substance/The level of expressed mRNA in the absence of chemical substance: 1.8
Yeast gene YGR221C, incubated two hours with chemical substance
  The level of expressed mRNA in the presence of chemical substance/The level of expressed mRNA in the absence of chemical substance: 0.9
Yeast gene YHR138C, incubated two hours with chemical substance
  The level of expressed mRNA in the presence of chemical substance/The level of expressed mRNA in the absence of chemical substance: 2.8
Yeast gene YHR199C, incubated two hours with chemical substance
  The level of expressed mRNA in the presence of chemical substance/The level of expressed mRNA in the absence of chemical substance: 1.9
Yeast gene YIL023C, incubated two hours with chemical substance
  The level of expressed mRNA in the presence of chemical substance/The level of expressed mRNA in the absence of chemical substance: 1.1
Yeast gene YIL041W, incubated two hours with chemical substance
  The level of expressed mRNA in the presence of chemical substance/The level of expressed mRNA in the absence of chemical substance: 1.0
Yeast gene YIL087C, incubated two hours with chemical substance
  The level of expressed mRNA in the presence of chemical substance/The level of expressed mRNA in the absence of chemical substance: 1.3
Yeast gene YJL057C, incubated two hours with chemical substance
  The level of expressed mRNA in the presence of chemical substance/The level of expressed mRNA in the absence of chemical substance: 1.5
Yeast gene YJL066C, incubated two hours with chemical substance
  The level of expressed mRNA in the presence of chemical substance/The level of expressed mRNA in the absence of chemical substance: 0.9
Yeast gene YJL082W, incubated two hours with chemical substance
  The level of expressed mRNA in the presence of chemical substance/The level of expressed mRNA in the absence of chemical substance: 1.4
Yeast gene YJL151C, incubated two hours with chemical substance
  The level of expressed mRNA in the presence of chemical substance/The level of expressed mRNA in the absence of chemical substance: 1.0
Yeast gene YJL152W, incubated two hours with chemical substance
  The level of expressed mRNA in the presence of chemical substance/The level of expressed mRNA in the absence of chemical substance: 0.9
Yeast gene YJL161W, incubated two hours with chemical substance
  The level of expressed mRNA in the presence of chemical substance/The level of expressed mRNA in the absence of chemical substance: 1.7
Yeast gene YJL171C, incubated two hours with chemical substance
  The level of expressed mRNA in the presence of chemical substance/The level of expressed mRNA in the absence of chemical substance: 2.3
Yeast gene YJR008W, incubated two hours with chemical substance
  The level of expressed mRNA in the presence of chemical substance/The level of expressed mRNA in the absence of chemical substance: 1.6
Yeast gene YJR054W, incubated two hours with chemical substance
  The level of expressed mRNA in the presence of chemical substance/The level of expressed mRNA in the absence of chemical substance: 0.8
Yeast gene YKL071W
  The level of expressed mRNA in the presence of chemical substance/The level of expressed mRNA in the absence of chemical substance: 8.3
Yeast gene YKL086W, incubated two hours with chemical substance
  The level of expressed mRNA in the presence of chemical substance/The level of expressed mRNA in the absence of chemical substance: 1.0
Yeast gene YKL151C, incubated two hours with chemical substance
  The level of expressed mRNA in the presence of chemical substance/The level of expressed mRNA in the absence of chemical substance: 1.2
Yeast gene YKL153W, incubated two hours with chemical substance
  The level of expressed mRNA in the presence of chemical substance/The level of expressed mRNA in the absence of chemical substance: 1.1
